Source: ChEMBL document CHEMBL3808308, “Synergistic potentiation of (-)-lomaiviticin A cytotoxicity by the ATR inhibitor VE-821” (Bioorg Med Chem Lett, 2016)
Activity calls are given as the source filed them. No cut-off for these calls is given here.

Key:
K562 [1] = assay: Induction of apoptosis in human K562 cells assessed as gammaH2AX/53BP1 levels up to 250 pM after 48 hrs by DAPI staining based immunofluorescence microscopy; format: functional, cell-based
K562 [2] = assay: Induction of DNA double-strand breaks in human K562 cells at 50 to 500 pM after 24 hrs by neutral comet assay; format: functional, cell-based
K562 [3] = assay: Potentiation of 250 pM (-)-lomaiviticin A-induced cytotoxicity against human K562 cells assessed as decrease in cell viability at 10 uM after 48 hrs by cell titer-glo luminescence assay; format: functional, cell-based
U-251 [4] = assay: Selectivity ratio of LC50 for human U251 cells expressing PTEN to LC50 for PTEN-deficient human U251 cells; format: functional
U-251 [5] = assay: Cytotoxicity against PTEN-deficient human U251 cells assessed as decrease in cell viability by clonogenic survival assay; format: functional; conditions: read-out: LC50 (the source's name)
[6] = Selectivity ratio of LC50 for chinese hamster VC8 cells expressing BRCA2 to LC50 for BRCA2-deficient chinese hamster VC8 cells; format: functional, Cricetulus griseus
[7] = Cytotoxicity against BRCA2-deficient chinese hamster VC8 cells assessed as decrease in cell viability by clonogenic survival assay; format: functional; conditions: Cricetulus griseus, V-C8; read-out: LC50 (the source's name)
K562 [8] = assay: Cytotoxicity against human K562 cells assessed as decrease in cell viability at 1 nM after 48 hrs by cell titer-glo luminescence assay; format: functional
K562 [9] = assay: Cytotoxicity against human K562 cells assessed as effect on cell viability at 0.05 to 0.5 nM after 24 to 48 hrs by cell titer-glo luminescence assay; format: functional
K562 [10] = assay: Cytotoxicity against human K562 cells assessed as decrease in cell viability after 24 to 48 hrs by cell titer-glo luminescence assay; format: cell-based
[11] = Cytotoxicity against human K562 cells assessed as decrease in cell viability after 48 hrs by cell titer-glo luminescence assay; format: cell-based; conditions: read-out: ED50

| SMILES | Activity (K562 [1]) | Activity (K562 [2]) | Activity (K562 [3]) | RatioLC50 (U-251 [4]) | CC50 (U-251 [5]) [nM] | RatioLC50 [6] | CC50 [7] [nM] | Activity (K562 [8]) [%] | Activity (K562 [9]) [%] | Activity (K562 [10]) | CC50 at 48 h [11] [nM] |
| --- | --- | --- | --- | --- | --- | --- | --- | --- | --- | --- | --- |
| CC[C@@]1(O[C@H]2C[C@H](OC)[C@@H](O)[C@H](C)O2)[C@H](O[C@H]2C[C@@H](O)[C@H](N(C)C)[C@@H](C)O2)c2c(c3c(=O)c4c(O)ccc(O)c4c(=O)c=3c2=[N+]=[N-])C(=O)[C@@H]1[C@H]1C(=O)c2c(c(=[N+]=[N-])c3c(=O)c4c(O)ccc(O)c4c(=O)c2=3)[C@@H](O[C@H]2C[C@@H](O)[C@H](N(C)C)[C@@H](C)O2)[C@@]1(CC)O[C@H]1C[C@H](OC)[C@@H](O)[C@H](C)O1 | Active | inactive | Active | >11.6 | 0.002 | >11.6 | 0.0015 | 34 | <5 |  |  |
| O=C(CCCCCCC(=O)Nc1ccccc1)NO [VORINOSTAT] |  |  |  |  |  |  |  |  |  | Dose-dependent effect | 1250 |
